Data on 5 molecules can be found in patent publication US12441710B2, “Substituted piperidino compounds and related methods of treatment” (Alkermes, Inc., priority 2020, dated 2025).

For one series, the system named is MDR1. In words: MDCK-MDR1 permeability assay. Format: in vitro ADME. To be noted: dog, 3 μM test compound; for efflux ratio at 2 h, 3 μM: Papp (B→A) divided by Papp (A→B), read-out: Efflux ratio (ER); for Papp A→B at 2 h, 3 μM: apical to basolateral, 2 hours at 37 degrees C. The procedure:
The bidirectional permeability (Apical to Basal and Basal to Apical directions) of test compounds in MDCK-MDR1 cells were evaluated using MDCK-MDR1 cells seeded in Solvo PreadyPort™ MDCK 96-well plate. Once the plate was received from ReadyCell (Barcelona, Spain), it was treated as per PreadyPort™ user's manual.
For the Apical to Basolateral (A→B) permeability, 80 μL of test compound (3 μM) co-dosed with LY (Lucifer Yellow) (100 μM) in HBSS (Hank's Balanced Salt Solution) assay buffer was added to the donor side (A) while 250 μL of HBSS buffer was added to the receiver side (B). For the Basolateral to Apical (B→A) permeability, 255 μL of test compound (3 μM) in HBSS assay buffer was added to the donor side (B) while 75 μL of HBSS buffer containing LY (100 μM) was added to the receiver side (A).
The plate was placed in an incubator set at 37 degrees C. After 10 minutes of pre-warming, 5 μL aliquot was taken from donor compartment and set aside as the dosing solution. The MDCK-MDR1 incubation plate was placed back into the incubator for 2 hours of incubation at 37 degrees C. After 2 hours of incubation, 25 μL and 5 μL aliquots were removed from the receiver and donor sides, respectively. To the 5 μL aliquots taken from the donor sides (before and after a 2-hour incubation) were diluted with 20 μL of the HBSS buffer. All samples were mixed with 150 μL with acetonitrile containing internal standard (IS) and 200 μL water, and analyzed by LC-MS/MS.
The apparent permeability (Papp) was calculated using the following formula: Papp=dQ/dt×1/A×C0 where: • dQ/dt: amount of translocated material over incubation time (nmol/s) • A: area of insert (0.14 cm^2 for PreadyPort™ MDR1-96) • C0: initial concentration of product applied in apical (A→B) or basal (B→A) compartment (nmol/mL).
The efflux ratio (ER) was measured by dividing the Papp (basolateral to apical direction) by Papp (apical to basolateral direction). It is a general measure of the involvement of active processes. An ER >2 is considered positive for active transport.
The data reported in Table 3 were obtained according to the MDCK-MDR1 permeability assay described above.

Series [1] can be described thus: Hepatocytes stability assay (human hepatocytes). The series is classed as in vitro ADME. To be noted: both sexes, cryopreserved hepatocytes, 1 μM test compound, 1×10^6 cell/mL, read-out: CLint (μL/min/million cells). A digest of the protocol:
(§1)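 Pooled cryopreserved human hepatocytes (50 donors, mixed gender), 1×10^6 cells/mL in KHB, with 1 μM compound (0.1% DMSO) at 37 degrees C, sampled 0–240 min. Parent depletion by LC-MS/MS; first-order fit gave T1/2 and CLint, scaled to hepatic clearance by well-stirred model with fu assumed 1, plus extraction ratio.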

A further series has as its system human hepatocytes. Description: Hepatocytes stability assay (human hepatocytes). Format: in vitro ADME. The conditions noted are these: hepatic clearance divided by liver blood flow, fu assumed unity. A digest of the protocol:
as §1

Series [2] has as its target T1, human orexin-2 receptor (OX2R) (Homo sapiens, UniProt O43614).
T1 construct: expressed in transfected cells
T1 sequence (O43614 1-444): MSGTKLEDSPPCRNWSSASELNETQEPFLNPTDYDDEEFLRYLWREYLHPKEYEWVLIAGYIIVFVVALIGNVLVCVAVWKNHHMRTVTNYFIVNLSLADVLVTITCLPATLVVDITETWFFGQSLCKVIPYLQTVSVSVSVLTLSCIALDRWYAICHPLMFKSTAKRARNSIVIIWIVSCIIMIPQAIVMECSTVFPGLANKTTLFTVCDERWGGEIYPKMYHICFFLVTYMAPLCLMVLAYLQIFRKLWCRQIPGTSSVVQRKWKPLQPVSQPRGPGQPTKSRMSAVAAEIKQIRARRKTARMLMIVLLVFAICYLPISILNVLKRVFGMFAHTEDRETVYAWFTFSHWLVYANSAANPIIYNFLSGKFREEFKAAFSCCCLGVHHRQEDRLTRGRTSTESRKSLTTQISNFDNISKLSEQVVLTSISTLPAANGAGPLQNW
Description: Human OX2R IP1 assay. Format: cell-based. The conditions noted are these: T-Rex CHO cells stably overexpressing human OX2R; IP1 accumulation, 1 hr at 37 degrees C. As for the experimental part:
T-Rex CHO cells stably overexpressing the human orexin-2 receptor (OX2R) were induced overnight with 1 μg/mL of doxycycline in a T225 flask. 24 hours post induction, cells were lifted with accutase and plated into a 384-well proxy plate at 30,000 cells/well. Cells were then treated with different test compounds in 1× stimulation buffer containing 10 mM Hepes, 1 mM CaCl2), 0.5 mM MgCl2, 4.2 mM KCl, 146 mM NaCl, 5.5 mM glucose, and 50 mM LiCl, pH 7.4, for 1 hr at 37 degrees C. Following incubation, the reaction was terminated by the addition of detection mix, which is composed of IP1-d2 and anti-IP1-cryptate diluted in lysis buffer as well as 1× stimulation buffer. The plates were allowed to incubate for 1 hour at room temperature and were then read in the EnVision® multimode plate reader, measuring inositol phosphate levels.
Cisbio IP1 is a cell-based functional assay quantifying the accumulation of inositol monophosphate (IP), a metabolite released as a result of orexin 2 receptor activation through the phospholipase C-Gq signaling pathway. This is a competitive immunoassay in which the IP1 produced by the cells upon receptor activation competes with the IP1 analog coupled to the d2 fluorophore (acceptor) for binding to an anti-IP1 monoclonal antibody labeled with Eu cryptate (donor). The measured HTRF-FRET based signal is inversely proportional to the IP1 concentration produced.
The EC50 values reported in Table 2 were obtained according to the human OX2R IP1 assay described above. Data are the mean EC50 values±S.E.M. The compound methyl (2R,3S)-3-((methylsulfonyl)amino)-2-(((cis-4-phenylcyclohexyl)oxy)methyl)-piperidine-1-carboxylate (sometimes referred to herein as Reference Compound A) is a reference compound which is disclosed in Example 5 of PCT publication no. WO2017/135306.

The test system of the next series is Sprague-Dawley rats. In words: Assessment of wake promotion in Sprague-Dawley rats (EEG/EMG). The series is classed as in vivo, rat. The conditions noted are these: 3 mpk, male Sprague-Dawley rats, 6-hour post-dose period. As for the experimental part:
Wake promotion was assessed using electroencephalography (EEG) and electromyography (EMG) in adult male Sprague-Dawley rats. All rats (Charles River Laboratories, Raleigh, NC, USA) were intraperitoneally implanted with telemetry devices (F50-EEE, Data Sciences International Inc., MN, USA) under isoflurane anesthesia. For EEG, stainless steel screws were implanted over frontal cortex and parietal cortex, and reference screws were placed over cerebellum. Additionally, an electrode was placed in neck muscle for EMG. Rats were given carprofen post-surgery and underwent a 7 to 10-day recovery period. Rats habituated to the experimental room for 7 days and were maintained on a 12-hour light-dark cycle.
EEG and EMG data were recorded using the DSI telemetry system and Ponemah software (Data Sciences International Inc., MN, USA). Sleep-wake stages were scored both manually and with Somnivore, a supervised machine learning software platform, in 10 second epochs. Records were visually inspected as needed post-processing.
All test compounds were dissolved in 5% DMSO and suspended in 95% saline with 0.5% methylcellulose and 0.5% tween. […] Unless otherwise indicated, all compounds were dosed orally. Recordings for each rat were initiated immediately after dosing and lasted for 6 hours post-dose.
Two key endpoints include wakefulness time and cortical activation time. […]

In the case of `C[C@@H](c1ccccc1)N1CC[C@H](NS(C)(=O)=O)C(COC2CCC(c3ccccc3)CC2)C1` (some centres unmarked) [Compound 37], in the series with MDR1, the efflux ratio at 2 h, 3 μM was found to be 12 and the Papp A→B at 2 h, 3 μM turned out to be 0.38 ×10⁻⁶ cm/s. In addition, in series [1], the hepatocyte CLint at 1 μM is 99 µL/min/1e6 cells. Further, in the series on human hepatocytes, the “Extraction Ratio (ER)” value was 0.94. Also, the concentration giving a half-maximal response (EC50) in series [2] was more than 1 µM.
In the case of `COC(=O)N1CCC[C@H](NS(C)(=O)=O)[C@@H]1CO[C@H]1CC[C@@H](c2ccccc2)CC1` [Reference Compound A, methyl (2R,3S)-3-((methylsulfonyl)amino)-2-(((cis-4-phenylcyclohexyl)oxy)methyl)-piperidine-1-carboxylate, reference compound], the “Mean cortical activation time (% vehicle treatment)” value with Sprague-Dawley rats (SC) turned out to be 118.75 % vehicle treatment. The “Extraction Ratio (ER)” value in the series on human hepatocytes worked out at 0.92. This molecule also showed an EC50 in series [2] of less than 0.1 µM.
Turning to `CS(=O)(=O)N[C@H]1CCN(c2ccccn2)CC1COC1CCN(c2ncccn2)CC1` (some centres unmarked) [Compound 1], in the series with MDR1, the efflux ratio at 2 h, 3 μM came out at 12 and the apparent permeability from apical to basolateral (Papp A→B) at 2 h, 3 μM was found to be 2.7 ×10⁻⁶ cm/s. Besides, in series [1], the hepatocyte CLint at 1 μM came out at 31 µL/min/1e6 cells. In addition, the “Extraction Ratio (ER)” value in the series on human hepatocytes worked out at 0.82. The EC50 in series [2] was more than 1 µM.
Take `CS(=O)(=O)N[C@H]1CCN(c2ccccn2)C[C@H]1CO[C@H]1CC[C@@H](c2cccc(F)c2)CC1` [Compound 6]: in the series with MDR1, the efflux ratio at 2 h, 3 μM was 2.8 and the Papp A→B at 2 h, 3 μM was 1.3 ×10⁻⁶ cm/s. For the same molecule, the hepatocyte CLint at 1 μM in series [1] was 44 µL/min/1e6 cells. Also, the “Extraction Ratio (ER)” value with human hepatocytes was 0.87. The molecule also had a concentration for a half-maximal effect (EC50) in series [2] of less than 0.1 µM.
As to `O=S(=O)(N[C@H]1CCN(c2ccccn2)C[C@H]1CO[C@H]1CC[C@@H](c2ccccc2)CC1)C(F)(F)F` [Compound 53], the “Mean cortical activation time (% vehicle treatment)” value with Sprague-Dawley rats (PO) stood at 105.00 % vehicle treatment. The same molecule displayed an EC50 in series [2] of less than 0.1 µM.

The Papp A→B is the apparent permeability from the apical to the basolateral side of a cell layer. A lower Papp A→B goes with slow passage. The EC50 is the concentration that produces a half-maximal response. A lower EC50 goes with a more potent agent.
